Measurements: ChEMBL document CHEMBL4610023, “An amide-based sulfenamide prodrug of gamma secretase inhibitor BMS-708163 delivers parent drug from an oral conventional solid dosage form in male beagle dog” (Bioorg Med Chem Lett, 2020)
Converted amounts (≈) assume the structure as drawn.

Key:
[1] = Chemical stability of compound in aqueous solution assessed as half life at 100 ug/ml and pH 1; format: physicochemical
[2] = Aqueous solubility of compound at pH 6.5; format: physicochemical; conditions: aqueous solution
[3] = Chemical stability of compound in aqueous solution assessed as half life at 100 ug/ml and pH 7.4; format: physicochemical
[4] = Chemical stability of compound in aqueous solution assessed as half life at 100 ug/ml and pH 4; format: physicochemical
[5] = Aqueous solubility of compound at pH 2; format: physicochemical; conditions: aqueous solution
[6] = Oral bioavailability in Beagle dog at 3 mg/kg; format: ADME, organism-based, Canis lupus familiaris; conditions: in vivo
[7] = Tmax in Beagle dog at 3 mg/kg, po; format: ADME, organism-based, Canis lupus familiaris; conditions: in vivo
[8] = Drug concentration in Beagle dog plasma at 3 mg/kg, po measured at 24 hrs; format: ADME, organism-based, Canis lupus familiaris
[9] = AUC (0 to 24 hrs) in Beagle dog at 3 mg/kg, po; format: ADME, organism-based, Canis lupus familiaris; set-up: time < 24 hr, dose 3 mg/kg, route oral; conditions: in vivo
[10] = Cmax in Beagle dog at 3 mg/kg, po; format: ADME, organism-based, Canis lupus familiaris; set-up: dose 3 mg/kg, route oral; conditions: in vivo

Compound	half-life at 100 ug/ml [1] [h]	solubility [2] [µg/mL]	half-life at 100 ug/ml [3] [h]	half-life at 100 ug/ml [4] [h]	solubility [5] [µg/mL]	bioavailability [6] [%]	Tmax [7] [h]	concentration at 24 h [8] [nM]	AUC(0-t) at 24 h [9] [µM·h]	Cmax [10] [nM]
O=C(NSc1ccccc1)[C@@H](CCC(F)(F)F)N(Cc1ccc(-c2ncon2)cc1F)S(=O)(=O)c1ccc(Cl)cc1	> 500	< 1	268	> 500	< 1					
COC(=O)[C@@H](N)CSNC(=O)[C@@H](CCC(F)(F)F)N(Cc1ccc(-c2ncon2)cc1F)S(=O)(=O)c1ccc(Cl)cc1	> 500	21 (≈ 32.1 µM)	15	185	3900 (≈ 5960 µM)	107 to 115	2	90 to 474	6.03 to 15.8	707 to 1170
CCOC(=O)[C@@H](N)CSNC(=O)[C@@H](CCC(F)(F)F)N(Cc1ccc(-c2ncon2)cc1F)S(=O)(=O)c1ccc(Cl)cc1	> 500	10 (≈ 15 µM)	23	258	4300 (≈ 6440 µM)					

The next lines start with the values.

half-life at 100 ug/ml [1] [h]	solubility [2] [µg/mL]	half-life at 100 ug/ml [3] [h]	half-life at 100 ug/ml [4] [h]	solubility [5] [µg/mL]	bioavailability [6] [%]	Tmax [7] [h]	concentration at 24 h [8] [nM]	AUC(0-t) at 24 h [9] [µM·h]	Cmax [10] [nM]	Compound
> 500	260 (≈ 406 µM)	72	418	510 (≈ 797 µM)						N[C@@H](CSNC(=O)[C@@H](CCC(F)(F)F)N(Cc1ccc(-c2ncon2)cc1F)S(=O)(=O)c1ccc(Cl)cc1)C(=O)O
> 500	< 1	197	> 500	< 1						N#CCCSNC(=O)[C@@H](CCC(F)(F)F)N(Cc1ccc(-c2ncon2)cc1F)S(=O)(=O)c1ccc(Cl)cc1
> 500	321 (≈ 539 µM)	52	> 500	> 10000						NCCSNC(=O)[C@@H](CCC(F)(F)F)N(Cc1ccc(-c2ncon2)cc1F)S(=O)(=O)c1ccc(Cl)cc1
	< 1					1 to 2	98 to 442	5.25 to 14.6	881 to 1150	NC(=O)[C@@H](CCC(F)(F)F)N(Cc1ccc(-c2ncon2)cc1F)S(=O)(=O)c1ccc(Cl)cc1 [AVAGACESTAT]
